Three compounds from US20200239530A1, “COMPOUNDS AND METHODS OF MODULATING PROTEIN DEGRADATION” (Vividion Therapeutics, Inc., priority 2017, published 2020) can be followed below.

Assay in all cases: Cysteine liganding, probe competition
Format in all cases: binding

In one test the target is T1, UniProt Q9H0A6 (Homo sapiens, UniProt Q9H0A6).
T1 construct: 200 μL of lysate containing 5 mg/ml proteome was treated with 2 μL of 100× compound stock; endogenous in cells
The source says:
(§1) The following 96-well sample prep protocol was used for sample preparation.

For a further test, the target named is T2, UniProt Q8IWR1 (Homo sapiens, UniProt Q8IWR1).
T2 construct: 200 μL of lysate containing 5 mg/ml proteome was treated with 2 μL of 100× compound stock; endogenous in cells
T2 sequence (Q8IWR1 1-403): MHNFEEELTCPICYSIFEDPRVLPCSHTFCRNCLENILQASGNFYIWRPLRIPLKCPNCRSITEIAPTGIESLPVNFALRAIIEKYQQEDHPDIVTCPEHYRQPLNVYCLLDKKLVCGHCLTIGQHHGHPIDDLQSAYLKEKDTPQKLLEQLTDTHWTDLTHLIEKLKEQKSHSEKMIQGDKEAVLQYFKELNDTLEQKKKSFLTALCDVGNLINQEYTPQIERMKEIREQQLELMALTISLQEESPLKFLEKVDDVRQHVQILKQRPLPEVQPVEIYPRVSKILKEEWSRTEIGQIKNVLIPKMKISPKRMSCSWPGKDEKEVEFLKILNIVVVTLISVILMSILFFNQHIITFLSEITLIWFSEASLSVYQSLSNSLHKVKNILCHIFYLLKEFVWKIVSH
Excerpt: as §1

The target in the next test is T3, UniProt Q9C026 (Homo sapiens, UniProt Q9C026).
T3 construct: 200 μL of lysate containing 5 mg/ml proteome was treated with 2 μL of 100× compound stock; endogenous in cells
Excerpt: as §1

The target in the next test is T4, UniProt Q9BWF2 (Homo sapiens, UniProt Q9BWF2).
T4 construct: 200 μL of lysate containing 5 mg/ml proteome was treated with 2 μL of 100× compound stock; endogenous in cells
T4 sequence (Q9BWF2 1-469): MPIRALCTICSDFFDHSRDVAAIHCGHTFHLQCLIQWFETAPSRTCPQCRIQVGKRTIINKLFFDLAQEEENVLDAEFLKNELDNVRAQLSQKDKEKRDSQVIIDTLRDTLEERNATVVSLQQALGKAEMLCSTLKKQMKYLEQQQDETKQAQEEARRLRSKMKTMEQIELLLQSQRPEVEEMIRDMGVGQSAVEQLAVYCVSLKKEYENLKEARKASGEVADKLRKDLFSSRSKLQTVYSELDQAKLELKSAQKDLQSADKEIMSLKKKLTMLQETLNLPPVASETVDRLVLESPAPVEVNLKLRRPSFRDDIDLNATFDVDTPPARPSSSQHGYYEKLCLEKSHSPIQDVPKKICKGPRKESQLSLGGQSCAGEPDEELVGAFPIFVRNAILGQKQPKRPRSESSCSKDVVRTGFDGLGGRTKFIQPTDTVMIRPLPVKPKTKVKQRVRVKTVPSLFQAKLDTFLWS
Excerpt: as §1

For a further test, the target named is T5, UniProt O60683 (Homo sapiens, UniProt O60683).
T5 construct: 200 μL of lysate containing 5 mg/ml proteome was treated with 2 μL of 100× compound stock; endogenous in cells
Excerpt: as §1

In a further test the target is T6, UniProt Q6IQ16 (Homo sapiens, UniProt Q6IQ16).
T6 construct: 200 μL of lysate containing 5 mg/ml proteome was treated with 2 μL of 100× compound stock; endogenous in cells
T6 sequence (Q6IQ16 1-392): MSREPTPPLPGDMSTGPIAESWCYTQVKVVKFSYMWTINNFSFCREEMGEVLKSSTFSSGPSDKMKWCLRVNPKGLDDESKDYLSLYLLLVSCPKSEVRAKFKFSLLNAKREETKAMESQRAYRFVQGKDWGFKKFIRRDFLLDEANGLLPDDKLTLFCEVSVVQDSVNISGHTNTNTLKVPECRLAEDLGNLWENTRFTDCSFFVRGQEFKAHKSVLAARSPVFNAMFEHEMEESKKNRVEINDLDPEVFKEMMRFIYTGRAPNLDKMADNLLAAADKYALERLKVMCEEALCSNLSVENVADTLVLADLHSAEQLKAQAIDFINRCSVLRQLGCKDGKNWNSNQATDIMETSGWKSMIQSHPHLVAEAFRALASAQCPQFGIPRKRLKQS
Excerpt: as §1

Another test concerns the target T7, UniProt Q9HCI7 (Homo sapiens, UniProt Q9HCI7).
T7 construct: Cells were resuspended in cold PBS on ice and sonicated with a probe sonicator to achieve lysis; endogenous in cells
T7 sequence (Q9HCI7 1-577): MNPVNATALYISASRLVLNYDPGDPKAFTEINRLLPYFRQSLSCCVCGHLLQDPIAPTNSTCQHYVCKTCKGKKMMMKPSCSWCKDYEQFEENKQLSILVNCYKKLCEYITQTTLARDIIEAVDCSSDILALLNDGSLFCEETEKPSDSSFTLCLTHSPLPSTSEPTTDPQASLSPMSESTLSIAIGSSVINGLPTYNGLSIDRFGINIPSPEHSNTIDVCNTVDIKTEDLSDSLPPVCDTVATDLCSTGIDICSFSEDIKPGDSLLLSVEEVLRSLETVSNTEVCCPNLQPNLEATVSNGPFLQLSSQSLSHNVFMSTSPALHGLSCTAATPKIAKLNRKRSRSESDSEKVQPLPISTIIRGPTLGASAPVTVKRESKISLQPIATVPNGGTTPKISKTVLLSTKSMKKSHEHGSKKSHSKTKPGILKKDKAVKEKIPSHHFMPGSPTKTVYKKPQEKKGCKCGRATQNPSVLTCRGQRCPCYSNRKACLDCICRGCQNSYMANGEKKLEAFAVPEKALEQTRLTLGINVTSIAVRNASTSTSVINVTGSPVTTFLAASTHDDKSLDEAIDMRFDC
Particulars: for percent inhibition: 100 uM.
Excerpt: as §1

Setting [1] is: 500 uM, read-out: percent_inhibition.
Where [2] appears, read: read-out: KB02_100 uM_percent_inhibition.
The mark [3] stands for this setting: 500 uM, read-out: KB02_500 uM_percent_inhibition.
[4] abbreviates: read-out: KB05_100 uM_percent_inhibition.

Read-outs that look alike come from different tables or passages of the source.

T1 sequence (Q9H0A6 whole entry, change not shown): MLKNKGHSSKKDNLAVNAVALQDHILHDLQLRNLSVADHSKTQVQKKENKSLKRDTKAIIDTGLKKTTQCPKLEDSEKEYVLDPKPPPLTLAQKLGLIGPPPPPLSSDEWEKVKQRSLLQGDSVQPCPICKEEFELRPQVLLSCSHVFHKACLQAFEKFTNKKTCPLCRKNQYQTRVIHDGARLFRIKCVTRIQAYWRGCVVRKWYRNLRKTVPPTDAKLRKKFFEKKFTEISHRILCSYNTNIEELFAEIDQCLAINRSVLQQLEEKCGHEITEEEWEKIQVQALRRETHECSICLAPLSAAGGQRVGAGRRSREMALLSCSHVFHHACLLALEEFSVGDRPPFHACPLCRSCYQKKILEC
T3 sequence (Q9C026 whole entry, change not shown): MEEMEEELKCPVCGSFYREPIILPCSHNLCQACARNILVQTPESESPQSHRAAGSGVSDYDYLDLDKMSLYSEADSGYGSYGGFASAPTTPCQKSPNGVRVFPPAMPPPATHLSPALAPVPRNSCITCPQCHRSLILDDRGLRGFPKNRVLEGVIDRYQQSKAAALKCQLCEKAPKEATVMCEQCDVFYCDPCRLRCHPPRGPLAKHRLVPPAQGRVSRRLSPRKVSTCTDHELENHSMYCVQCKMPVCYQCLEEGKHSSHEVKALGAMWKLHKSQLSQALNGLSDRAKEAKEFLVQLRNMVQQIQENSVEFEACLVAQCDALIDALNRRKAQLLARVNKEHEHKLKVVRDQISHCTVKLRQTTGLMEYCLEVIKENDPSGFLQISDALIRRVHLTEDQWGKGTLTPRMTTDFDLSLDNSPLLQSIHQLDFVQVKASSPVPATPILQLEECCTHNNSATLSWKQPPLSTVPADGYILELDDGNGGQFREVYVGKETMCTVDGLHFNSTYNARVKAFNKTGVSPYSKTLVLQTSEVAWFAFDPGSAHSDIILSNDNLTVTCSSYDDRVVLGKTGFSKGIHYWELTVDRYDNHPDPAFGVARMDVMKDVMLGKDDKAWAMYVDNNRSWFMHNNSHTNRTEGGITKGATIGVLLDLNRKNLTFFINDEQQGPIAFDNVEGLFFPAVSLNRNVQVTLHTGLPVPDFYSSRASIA
T5 sequence (O60683 whole entry, change not shown): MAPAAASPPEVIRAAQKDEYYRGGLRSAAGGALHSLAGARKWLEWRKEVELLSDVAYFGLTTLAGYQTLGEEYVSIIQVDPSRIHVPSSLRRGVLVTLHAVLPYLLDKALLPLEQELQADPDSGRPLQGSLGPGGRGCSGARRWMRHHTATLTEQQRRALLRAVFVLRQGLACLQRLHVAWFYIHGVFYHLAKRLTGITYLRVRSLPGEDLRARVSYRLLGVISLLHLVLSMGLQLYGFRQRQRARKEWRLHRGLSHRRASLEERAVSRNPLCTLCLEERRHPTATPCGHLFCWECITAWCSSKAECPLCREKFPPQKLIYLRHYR

For `COc1ccc2c(c1)CCCN2C(=O)CCl` [KB02], the inhibition at 100 µM at UniProt Q9H0A6 (100 uM, read-out: percent_inhibition) turned out to be 44%; on UniProt Q8IWR1 (setting [2]) it was 46%; on UniProt Q9BWF2 (100 uM, read-out: KB02_100 uM_percent_inhibition) it was 10%; on UniProt O60683 (setting [2]), 51%; on UniProt Q6IQ16 (read-out: percent_inhibition) it was 16%. Moreover, the inhibition at 500 µM at UniProt Q9H0A6 (setting [1]) turned out to be 42%; on UniProt Q8IWR1 (setting [3]), 58%; at UniProt Q9C026 (setting [3]), 64%; at UniProt Q9BWF2 (setting [3]), 36%. Also, the “KB02_500 uM_percent_inhibition” value turned out to be 66% on UniProt Q8IWR1 (500 uM), 69% at UniProt Q9C026 (500 uM) and 52% at UniProt Q9BWF2 (500 uM).
On to `C=CC(=O)N(c1ccccc1)c1ccc(Br)cc1` [KB05], for which the results for the percent_inhibition on UniProt Q9H0A6 (500 uM) and on UniProt Q6IQ16 (500 uM) were 10% and 57%, respectively. For the same compound, the inhibition at 500 µM on UniProt Q9H0A6 (setting [1]) was 16%; at UniProt Q9BWF2 (500 uM, read-out: KB05_500 uM_percent_inhibition), 22%; at UniProt Q6IQ16 (setting [1]), 44%. For the same compound, the inhibition at 100 µM at UniProt Q8IWR1 (setting [4]) was 38%; at UniProt Q9HCI7 (read-out: percent inhibition), 15%; at UniProt O60683 (setting [4]), 37%; at UniProt Q6IQ16 (read-out: percent_inhibition), 20%. On UniProt Q9BWF2 (500 uM), the “KB05_500 uM_percent_inhibition” value stood at 29%. Also, on UniProt Q9HCI7, the percent inhibition worked out at 11%.
For `O=C(CCl)Nc1cc(C(F)(F)F)cc(C(F)(F)F)c1` [KBO3], the “KB03_100 uM_percent_inhibition” value on UniProt Q9C026 (100 uM) was 13%. At UniProt Q9HCI7, this compound showed a percent inhibition of 49%.
